Measurements taken from patent US6914045B2, “Glycopeptide antibiotics” (Wyeth Holdings Corporation, priority 2001, dated 2005).
≈ marks a conversion by molar mass, not a printed value.

Tests used:
Test in all cases: in vitro antibacterial evaluation, MIC by broth dilution
Assay type in all cases: cell-based
Escherichia coli = details: 18 hours at 35° C.
Streptococcus sp. = details: broth dilution, 18 hours at 35° C.
How it was run: (§1)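 Following National Committee for Clinical Laboratory Standards recommendations (M7-A2), susceptibility was measured by dilution in Muller-Hinton II […]. Bacteria were seeded at 5×10^5 CFU/mL against compound concentrations from 64 down to 0.06 μg/mL.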

Enterococcus sp. = details: broth dilution, 18 hours at 35° C.
How it was run: as §1

Staphylococcus sp. = details: broth dilution, 18 hours at 35° C.
How it was run: as §1

With `CCOc1cc(COCC2OC(OC3C(CO)OC(Oc4ccc(CC5NC(=O)C(C(C)c6ccccc6)NC(=O)CNC(=O)C(CO)NC(=O)C(C(O)C6CNC(=N)N6C6OC(CO)C(O)C(O)C6O)NC(=O)C(C(O)C6CNC(=N)N6)NC5=O)cc4)C(O)C3O)C(O)C(O)C2O)ccc1OC` (stereo not shown) [Example 238] the “MIC Escherichia coli (ATCC 25922)” value (Escherichia coli) was greater than 64 µg/mL, the “MIC Escherichia coli (GC 4559)” value (Escherichia coli) was greater than 64 µg/mL and the “MIC Escherichia coli (GC 4560)” value (Escherichia coli) was 2 µg/mL (≈ 1.37 µM). The “MIC Streptococcus agalactiae (GC 4564)” value (Streptococcus sp.) was 2 µg/mL (≈ 1.37 µM), the “MIC Streptococcus pneumoniae (ATCC 6301)” value (Streptococcus sp.) was 1 µg/mL (≈ 0.685 µM) and the “MIC Streptococcus pneumoniae (GC 1894)” value (Streptococcus sp.) was 0.5 µg/mL (≈ 0.343 µM). The “MIC Streptococcus pneumoniae (GC 4565)” value (Streptococcus sp.) was 1 µg/mL (≈ 0.685 µM), the “MIC Streptococcus pyogenes (GC 4563)” value (Streptococcus sp.) was 1 µg/mL (≈ 0.685 µM) and the “MIC Streptococcus pneumoniae (ATCC 6301)” value (Streptococcus sp.; inoculum 5×10^5 CFU/mL, strain ATCC 6301) was 1 µg/mL (≈ 0.685 µM). For the same compound, the “MIC Streptococcus pneumoniae (GC 1894)” value (Streptococcus sp.; inoculum 5×10^5 CFU/mL, strain GC 1894) was 0.5 µg/mL (≈ 0.343 µM), the “MIC Streptococcus pyogenes (GC 4563)” value (Streptococcus sp.; inoculum 5×10^5 CFU/mL, strain GC 4563) was 1 µg/mL (≈ 0.685 µM) and the “MIC Streptococcus agalactiae (GC 4564)” value (Streptococcus sp.; inoculum 5×10^5 CFU/mL, strain GC 4564) was 2 µg/mL (≈ 1.37 µM). The “MIC Streptococcus pneumoniae (GC 4565)” value (Streptococcus sp.; inoculum 5×10^5 CFU/mL, strain GC 4565) was 1 µg/mL (≈ 0.685 µM), the “MIC Enterococcus avium (GC 4558)” value (Enterococcus sp.) was 16 µg/mL (≈ 11 µM) and the “MIC Enterococcus faecalis (ATCC 29212)” value (Enterococcus sp.) was 16 µg/mL (≈ 11 µM). For the same compound, the “MIC Enterococcus faecalis (GC 2242)” value (Enterococcus sp.) was 16 µg/mL (≈ 11 µM), the “MIC Enterococcus faecalis (GC 2691)” value (Enterococcus sp.) was 16 µg/mL (≈ 11 µM) and the “MIC Enterococcus faecalis (GC 3059)” value (Enterococcus sp.) was 32 µg/mL (≈ 21.9 µM). The “MIC Enterococcus faecalis (GC 4552)” value (Enterococcus sp.) was 32 µg/mL (≈ 21.9 µM), the “MIC Enterococcus faecalis (GC 4553)” value (Enterococcus sp.) was 32 µg/mL (≈ 21.9 µM) and the “MIC Enterococcus faecalis (GC 4554)” value (Enterococcus sp.) was 32 µg/mL (≈ 21.9 µM). For the same compound, the “MIC Enterococcus faecalis (GC 6189)” value (Enterococcus sp.) was 16 µg/mL (≈ 11 µM), the “MIC Enterococcus faecium (GC 2243)” value (Enterococcus sp.) was 16 µg/mL (≈ 11 µM) and the “MIC Enterococcus faecium (GC 4556)” value (Enterococcus sp.) was 32 µg/mL (≈ 21.9 µM). The “MIC Enterococcus faecium (GC 4557)” value (Enterococcus sp.) was 4 µg/mL (≈ 2.74 µM), the “MIC Enterococcus faecalis (ATCC 29212)” value (Enterococcus sp.; strain ATCC 29212) was 16 µg/mL (≈ 11 µM) and the “MIC Enterococcus faecium (GC 2243)” value (Enterococcus sp.; strain GC 2243) was 16 µg/mL (≈ 11 µM). For the same compound, the “MIC Enterococcus faecalis (GC 4552)” value (Enterococcus sp.; strain GC 4552) was 32 µg/mL (≈ 21.9 µM), the “MIC Enterococcus faecalis (GC 4553)” value (Enterococcus sp.; strain GC 4553) was 32 µg/mL (≈ 21.9 µM) and the “MIC Enterococcus faecalis (GC 4554)” value (Enterococcus sp.; strain GC 4554) was 32 µg/mL (≈ 21.9 µM). For the same compound, the “MIC Enterococcus faecium (GC 4556)” value (Enterococcus sp.; strain GC 4556) was 32 µg/mL (≈ 21.9 µM), the “MIC Enterococcus faecium (GC 4557)” value (Enterococcus sp.; strain GC 4557) was 4 µg/mL (≈ 2.74 µM) and the “MIC Enterococcus avium (GC 4558)” value (Enterococcus sp.; strain GC 4558) was 16 µg/mL (≈ 11 µM). The “MIC Enterococcus faecalis (GC 6189)” value (Enterococcus sp.; strain GC 6189) was 16 µg/mL (≈ 11 µM), the “MIC Enterococcus faecalis (GC 2242)” value (Enterococcus sp.; inoculum 5×10^5 CFU/mL, strain GC 2242) was 16 µg/mL (≈ 11 µM) and the “MIC Enterococcus faecalis (GC 2691)” value (Enterococcus sp.; inoculum 5×10^5 CFU/mL, strain GC 2691) was 16 µg/mL (≈ 11 µM). The “MIC Enterococcus faecalis (GC 3059)” value (Enterococcus sp.; inoculum 5×10^5 CFU/mL, strain GC 3059) was 32 µg/mL (≈ 21.9 µM), the “MIC Coagulase Negative Staphylococcus (GC 4547)” value (Staphylococcus sp.) was 2 µg/mL (≈ 1.37 µM) and the “MIC Coagulase Negative Staphylococcus (GC 4548)” value (Staphylococcus sp.) was 2 µg/mL (≈ 1.37 µM). The “MIC Coagulase Negative Staphylococcus (GC 4549)” value (Staphylococcus sp.) was 2 µg/mL (≈ 1.37 µM), the “MIC Coagulase Negative Staphylococcus (GC 4551)” value (Staphylococcus sp.) was 4 µg/mL (≈ 2.74 µM) and the “MIC Coagulase Negative Staphylococcus (GC 6257)” value (Staphylococcus sp.) was 1 µg/mL (≈ 0.685 µM). For the same compound, the “MIC Staphylococcus aureus (ATCC 29213)” value (Staphylococcus sp.) was 4 µg/mL (≈ 2.74 µM), the “MIC Staphylococcus aureus (GC 1131)” value (Staphylococcus sp.) was 4 µg/mL (≈ 2.74 µM) and the “MIC Staphylococcus aureus (GC 3051)” value (Staphylococcus sp.) was 4 µg/mL (≈ 2.74 µM). The “MIC Staphylococcus aureus (GC 3053)” value (Staphylococcus sp.) was 8 µg/mL (≈ 5.48 µM), the “MIC Staphylococcus aureus (GC 4541)” value (Staphylococcus sp.) was 4 µg/mL (≈ 2.74 µM) and the “MIC Staphylococcus aureus (GC 4542)” value (Staphylococcus sp.) was 4 µg/mL (≈ 2.74 µM). The “MIC Staphylococcus aureus (GC 4544)” value (Staphylococcus sp.) was 8 µg/mL (≈ 5.48 µM), the “MIC Staphylococcus aureus (GC 4545)” value (Staphylococcus sp.) was 2 µg/mL (≈ 1.37 µM) and the “MIC Staphylococcus aureus-SMITH (GC 4543)” value (Staphylococcus sp.) was 4 µg/mL (≈ 2.74 µM). For the same compound, the “MIC Staphylococcus haemolyticus (GC 4546)” value (Staphylococcus sp.) was 2 µg/mL (≈ 1.37 µM), the “MIC Staphylococcus aureus (ATCC 29213)” value (Staphylococcus sp.; strain ATCC 29213) was 4 µg/mL (≈ 2.74 µM) and the “MIC Staphylococcus aureus (GC 1131)” value (Staphylococcus sp.; strain GC 1131) was 4 µg/mL (≈ 2.74 µM). The “MIC Staphylococcus aureus (GC 3051)” value (Staphylococcus sp.; strain GC 3051) was 4 µg/mL (≈ 2.74 µM), the “MIC Staphylococcus aureus (GC 3053)” value (Staphylococcus sp.; strain GC 3053) was 8 µg/mL (≈ 5.48 µM) and the “MIC Staphylococcus aureus (GC 4541)” value (Staphylococcus sp.; strain GC 4541) was 4 µg/mL (≈ 2.74 µM). The “MIC Staphylococcus aureus (GC 4542)” value (Staphylococcus sp.; strain GC 4542) was 4 µg/mL (≈ 2.74 µM), the “MIC Staphylococcus aureus-SMITH (GC 4543)” value (Staphylococcus sp.; strain GC 4543) was 4 µg/mL (≈ 2.74 µM) and the “MIC Staphylococcus aureus (GC 4544)” value (Staphylococcus sp.; strain GC 4544) was 8 µg/mL (≈ 5.48 µM). The “MIC Staphylococcus aureus (GC 4545)” value (Staphylococcus sp.; strain GC 4545) was 2 µg/mL (≈ 1.37 µM), the “MIC Staphylococcus haemolyticus (GC 4546)” value (Staphylococcus sp.; strain GC 4546) was 2 µg/mL (≈ 1.37 µM) and the “MIC Coagulase Negative Staphylococcus (GC 4547)” value (Staphylococcus sp.; strain GC 4547) was 2 µg/mL (≈ 1.37 µM). The “MIC Coagulase Negative Staphylococcus (GC 4548)” value (Staphylococcus sp.; strain GC 4548) was 2 µg/mL (≈ 1.37 µM), the “MIC Coagulase Negative Staphylococcus (GC 4549)” value (Staphylococcus sp.; strain GC 4549) was 2 µg/mL (≈ 1.37 µM) and the “MIC Coagulase Negative Staphylococcus (GC 4551)” value (Staphylococcus sp.; strain GC 4551) was 4 µg/mL (≈ 2.74 µM). For the same compound, the “MIC Coagulase Negative Staphylococcus (GC 6257)” value (Staphylococcus sp.; strain GC 6257) was 1 µg/mL (≈ 0.685 µM).
